Experimental data from the supplement of paper PMC13380429.

Experiments:
Details in all cases: 72 h
[1] = tested on: HepG2; assay: drug sensitivity score (DSS) for viability; higher = more toxic; extreme values may be limits of the assay
[2] = tested on: U2OS; assay: as above
[3] = tested on: Caco-2; assay: as above
[4] = tested on: Calu-3; assay: as above
[5] = tested on: Vero E6; assay: as above
[6] = tested on: HepG2; assay: cell viability relative to DMSO; higher = less toxic
[7] = tested on: U2OS; assay: as above
[8] = tested on: Caco-2; assay: as above
[9] = tested on: Calu-3; assay: as above
[10] = tested on: Vero E6; assay: as above
[11] = tested on: HepG2; assay: relative viability EC50 (midpoint between 100% and the lowest measured viability); higher = less toxic
[12] = tested on: U2OS; assay: as above
[13] = tested on: Caco-2; assay: as above
[14] = tested on: Vero E6; assay: as above

SMILES | drug sensitivity score [1] | drug sensitivity score [2] | drug sensitivity score [3] | drug sensitivity score [4] | drug sensitivity score [5] | cell viability ([6]; 1 nM) [%] | cell viability ([6]; 10 nM) [%] | cell viability ([6]; 100 nM) [%] | cell viability ([6]; 10000 nM) [%] | cell viability ([7]; 10 nM) [%] | cell viability ([7]; 100 nM) [%] | cell viability ([7]; 1000 nM) [%] | cell viability ([7]; 10000 nM) [%] | cell viability ([8]; 1 nM) [%] | cell viability ([8]; 10 nM) [%] | cell viability ([8]; 100 nM) [%] | cell viability ([8]; 1000 nM) [%] | cell viability ([8]; 10000 nM) [%] | cell viability ([9]; 10 nM) [%] | cell viability ([9]; 100 nM) [%] | cell viability ([9]; 1000 nM) [%] | cell viability ([9]; 10000 nM) [%] | cell viability ([10]; 1 nM) [%] | cell viability ([10]; 10 nM) [%] | cell viability ([10]; 100 nM) [%] | cell viability ([10]; 1000 nM) [%] | cell viability ([10]; 10000 nM) [%] | relative viability EC50 [11] [µM] | relative viability EC50 [12] [µM] | relative viability EC50 [13] [µM] | relative viability EC50 [14] [µM] | cell viability ([6]; 1000 nM) [%] | cell viability ([7]; 1 nM) [%] | cell viability ([9]; 1 nM) [%]
O=C(Nc1cccc2cccnc12)c1ccc(N2C(=O)[C@@H]3[C@H](C2=O)[C@@H]2C=C[C@H]3C2)cc1 [endo-IWR-1] | 0 | 0 | 0 | 2.9 | 3.9 | 108 | 103 | 98.5 | 91.7 | 105 | 103 | 98 | 93.3 | 96 | 94.3 | 101 | 89.2 | 94.2 | 108 | 98.9 | 81.8 | 74.4 | 110 | 105 | 97.6 | 78.8 | 66.7 | – | – | – | – | – | – | –
O=c1cc(-c2ccc(O)c(O)c2)oc2cc(O)cc(O)c12 [luteolin] | 0 | 0.4 | 1.1 | 0.9 | 0 | 111 | 99.4 | 117 | 90.8 | 105 | 99.9 | 105 | 79.4 | 92.8 | 98.1 | 95.9 | 94.5 | 79.3 | 123 | 107 | 106 | 70.9 | 99.5 | 105 | 94.7 | 101 | 95.3 | > 10 | > 10 | > 10 | > 10 | 97.5 | 99.9 | 105
CCCCCCCCCCCCCCCC=O [1-hexadecanal] | 0 | 0 | 0 | – | 0 | 109 | 105 | 102 | 97 | 104 | 96.3 | 104 | 97.5 | 104 | 98 | 85.6 | 95.2 | 108 | – | – | – | – | 106 | 98.4 | 106 | 96.5 | 102 | > 10 | > 10 | > 10 | > 10 | 95.8 | 102 | –
O=C(O)/C=C(/CC(=O)O)C(=O)O [cis-aconitic-acid] | 0 | 0 | 0 | – | 0 | 105 | 105 | 91.6 | 98.9 | 99.1 | 101 | 96.7 | 103 | 88.4 | 97.1 | 98.6 | 90 | 93.4 | – | – | – | – | 99 | 103 | 94.9 | 97.8 | 109 | > 10 | > 10 | > 10 | > 10 | 113 | 98.3 | –
